# Source: article PMC12662848 (Cancer Chemotherapy and Pharmacology, 2025)
# How the values were obtained:
# [1] = Enzalutamide and N-desmethyl enzalutamide trough plasma PK (LC–MS/MS); details: for ENZAdm Cmin D1: 24 h sample relative to Cmin D0; for ENZAdm Cmin D1 / ENZAdm Cmin D0: geometric mean (geometric SD); for ENZAdm Cmin D0: pre 1st venetoclax sample on day 1
# Procedure: Additional samples were collected prior to dosing on days 8, 15, 21, and 57 (Fig. 1A). Samples were centrifuged at approximately 1,000 × g, and plasma was stored at −70 °C or colder until analysis.
# Plasma PK parameters were derived from the data by non-compartmental methods with WinNonlin (Certara, Princeton, NJ). Statistical analyses for PK parameter values were performed using SPSS 27.0 for Windows (SPSS Inc., Chicago, IL). Within patient variability in Cmin was calculated from the day 8 through day 57 data across doses by calculating 100 × the square root of the mean square within groups obtained after ANOVA of log-transformed values of these parameters with subject as a factor.
# [2] = cited from earlier work
# AR−/lo LAPC9-CRPC = tested on: AR−/lo LAPC9-CRPC; set-up: method as in PMID 30190514; details: single agent; cited from earlier work
# CYP3A4 = details: a sensitive CYP3A4 substrate; cited from earlier work
"Intrapatient variability in Cmin ([1]; male, human, in vivo) [%CV]","ENZA Cmin D1 ([1]; male, human, in vivo, 24 h)",Structure (SMILES),"Intrapatient variability in Cmin ([1]; N-desmethyl enzalutamide, from day 1 through 57) [%CV]",ENZAdm Cmin D1 ([1]; venetoclax 400 mg (N=3)),ENZAdm Cmin D0 ([1]; venetoclax 400 mg (N=3)),ENZAdm Cmin D1 ([1]; venetoclax 600 mg (N=3)),ENZAdm Cmin D0 ([1]; venetoclax 600 mg (N=3)),ENZAdm Cmin D1 ([1]; venetoclax 800 mg (N=4)),N-desmethyl enzalutamide concentration in previous reports [2] [µg/L],Enzalutamide concentration in previous reports [2] [µg/L],Growth of AR−/lo LAPC9-CRPC (AR−/lo LAPC9-CRPC),Increase in oral clearance of midazolam (CYP3A4)
–,–,CC1(C)C(=O)N(c2ccc(C#N)c(C(F)(F)F)c2)C(=S)N1c1ccc(C(N)=O)c(F)c1 [N-desmethyl enzalutamide],10,7.59 (1.34) µg/mL,7.04 (1.31) µg/mL,15.1 (1.12) µg/mL,15.2 (1.07) µg/mL,14.2 (1.21) µg/mL,13,–,–,–
7.0,12.4 (1.19) µg/mL,CNC(=O)c1ccc(N2C(=S)N(c3ccc(C#N)c(C(F)(F)F)c3)C(=O)C2(C)C)cc1F [enzalutamide],–,–,–,–,–,–,–,11.4,not,sevenfold
